Source: patent publication US9302999B2, “Substituted triazoles as herbicides” (E. I. DU PONT DE NEMOURS AND COMPANY, priority 2012, dated 2016)

Assays:
Type in all cases: in vivo
[1] = test system: sedge, umbrella (small-flower umbrella sedge Cyperus difformis); assay: Test B flooded paddy: sedge, umbrella; settings: Flood; 250 g ai/ha; applied to paddy water at 2-leaf stage; visually evaluated after 13 to 15 days
Method in brief: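 Paddy-water application: seedlings at 2-leaf stage, flood depth 3 cm maintained for the test duration. Evaluation after 13–15 days in the greenhouse by eye relative to controls; 0–100 scale.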

[2] = test system: nightshade (eastern black nightshade, Solanum ptycanthum); assay: Test C pre-/postemergence: nightshade; settings: Preemergence
Method in brief: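 Preemergence on seeds in loam/sand, postemergence on 2–18 cm (1–4-leaf) plants in peat-based medium; compounds in non-phytotoxic solvent with surfactant. After 13–15 days in greenhouse, visual rating versus controls, 0 (no effect) to 100 (complete control).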

[3] = test system: field poppy (Papaver rhoeas); assay: Test D pre-/postemergence: field poppy
Method in brief: (§1)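 Visual control ratings (0–100) after 14–21 days, controlled environment. Preemergence on silt loam; postemergence on 2–18 cm plants.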

[4] = test system: foxtail, green (green foxtail, Setaria viridis); assay: Test D pre-/postemergence: foxtail, green
Method in brief: as §1

kochia (Kochia scoparia) = assay: Test D pre-/postemergence: kochia
Method in brief: as §1

[5] = test system: oat, wild (wild oat, Avena fatua); assay: Test D pre-/postemergence: oat, wild
Method in brief: as §1

[6] = 62 g ai/ha, scale of 0 to 100, 0 is no effect, 100 is complete control
[7] = 125 g ai/ha, scale 0 to 100, 0 no effect, 100 complete control
[8] = 250 g ai/ha, scale 0 to 100, 0 no effect, 100 complete control
[9] = Postemergence, 31 g ai/ha, scale 0 to 100 (0 no effect, 100 complete control)
[10] = Postemergence, 62 g ai/ha, scale 0 to 100 (0 no effect, 100 complete control)
[11] = Postemergence, 125 g ai/ha, scale 0 to 100, 0 no effect, 100 complete control
[12] = Postemergence, 16 g ai/ha, scale 0 to 100
[13] = Preemergence, 16 g ai/ha, scale 0 to 100 (0 no effect, 100 complete control)
[14] = Preemergence, 31 g ai/ha, scale 0 to 100 (0 no effect, 100 complete control)
[15] = Preemergence, 62 g ai/ha, scale 0 to 100
[16] = Preemergence, 125 g ai/ha, scale 0 to 100
[17] = Postemergence, 250 g ai/ha, scale 0 to 100 (0 no effect, 100 complete control)
[18] = Preemergence, 250 g ai/ha, scale 0 to 100

Cc1nn(-c2ccc(F)c(C(F)(F)F)c2)nc1Oc1ccnc(C(F)(F)F)c1 [Compound 147]
Plant response rating, Sedge, Umbrella (0 to 100 scale, 0 is no effect, 100 is complete control) [1]: 80
Plant response rating, Nightshade ([2]; 31 g ai/ha, scale of 0 to 100, 0 is no effect, 100 is complete control): 98
Plant response rating, Nightshade [2, 6]: 98
Plant response rating, Nightshade [2, 7]: 98
Plant response rating, Nightshade [2, 8]: 98
Plant response rating: Field Poppy [3, 9]: 90
Plant response rating: Field Poppy [3, 10]: 100
Plant response rating: Field Poppy [3, 11]: 100
Plant response rating, Field Poppy [3, 12]: 90
Plant response rating, Field Poppy [3, 13]: 55
Plant response rating, Field Poppy [3, 14]: 75
Plant response rating, Field Poppy [3, 15]: 95
Plant response rating, Field Poppy [3, 16]: 100
Plant response rating: Foxtail, Green [4, 9]: 15
Plant response rating: Foxtail, Green [4, 10]: 25
Plant response rating: Foxtail, Green [4, 11]: 60
Plant response rating, Foxtail, Green [4, 12]: 15
Plant response rating, Foxtail, Green [4, 13]: 10
Plant response rating, Foxtail, Green [4, 14]: 25
Plant response rating, Foxtail, Green [4, 15]: 75
Plant response rating, Foxtail, Green [4, 16]: 100
Plant response rating: Kochia (kochia (Kochia scoparia); [9]): 85
Plant response rating: Kochia (kochia (Kochia scoparia); [10]): 90
Plant response rating: Kochia (kochia (Kochia scoparia); [11]): 95
Plant response rating, Kochia (kochia (Kochia scoparia); [12]): 70
Plant response rating, Kochia (kochia (Kochia scoparia); [13]): 15
Plant response rating, Kochia (kochia (Kochia scoparia); [14]): 15
Plant response rating, Kochia (kochia (Kochia scoparia); [15]): 50
Plant response rating, Kochia (kochia (Kochia scoparia); [16]): 70
Plant response rating: Oat, Wild [5, 9]: 15
Plant response rating: Oat, Wild [5, 10]: 30
Plant response rating: Oat, Wild [5, 11]: 35
Plant response rating, Oat, Wild [5, 12]: 10
Plant response rating, Oat, Wild [5, 13]: 5
Plant response rating, Oat, Wild [5, 14]: 15
Plant response rating, Oat, Wild [5, 15]: 35
Plant response rating, Oat, Wild [5, 16]: 70

CCOc1nn(-c2ccc(F)cc2)nc1Cc1ccnc(C(F)F)c1 [Compound 195]
Plant response rating, Sedge, Umbrella (0 to 100 scale, 0 is no effect, 100 is complete control) [1]: 100
Plant response rating, Nightshade ([2]; 31 g ai/ha, scale 0 (no effect) to 100 (complete control)): 60
Plant response rating, Nightshade [2, 6]: 85
Plant response rating, Nightshade [2, 7]: 95
Plant response rating, Nightshade [2, 8]: 98
Plant response rating: Field Poppy [3, 9]: 75
Plant response rating: Field Poppy [3, 10]: 95
Plant response rating: Field Poppy [3, 11]: 100
Plant response rating: Field Poppy [3, 17]: 100
Plant response rating, Field Poppy [3, 12]: 35
Plant response rating, Field Poppy [3, 13]: 30
Plant response rating, Field Poppy [3, 14]: 40
Plant response rating, Field Poppy [3, 15]: 60
Plant response rating, Field Poppy [3, 16]: 100
Plant response rating, Field Poppy [3, 18]: 100
Plant response rating: Foxtail, Green [4, 9]: 50
Plant response rating: Foxtail, Green [4, 10]: 75
Plant response rating: Foxtail, Green [4, 11]: 100
Plant response rating: Foxtail, Green [4, 17]: 100
Plant response rating, Foxtail, Green [4, 12]: 30
Plant response rating, Foxtail, Green [4, 13]: 15
Plant response rating, Foxtail, Green [4, 14]: 90
Plant response rating, Foxtail, Green [4, 15]: 100
Plant response rating, Foxtail, Green [4, 16]: 100
Plant response rating, Foxtail, Green [4, 18]: 100
Plant response rating: Kochia (kochia (Kochia scoparia); [9]): 85
Plant response rating: Kochia (kochia (Kochia scoparia); [10]): 95
Plant response rating: Kochia (kochia (Kochia scoparia); [11]): 100
Plant response rating: Kochia (kochia (Kochia scoparia); [17]): 100
Plant response rating, Kochia (kochia (Kochia scoparia); [12]): 70
Plant response rating, Kochia (kochia (Kochia scoparia); [13]): 40
Plant response rating, Kochia (kochia (Kochia scoparia); [14]): 50
Plant response rating, Kochia (kochia (Kochia scoparia); [15]): 60
Plant response rating, Kochia (kochia (Kochia scoparia); [16]): 80
Plant response rating, Kochia (kochia (Kochia scoparia); [18]): 85
Plant response rating: Oat, Wild [5, 9]: 20
Plant response rating: Oat, Wild [5, 10]: 25
Plant response rating: Oat, Wild [5, 11]: 35
Plant response rating: Oat, Wild [5, 17]: 45
Plant response rating, Oat, Wild [5, 12]: 10
Plant response rating, Oat, Wild [5, 13]: 0
Plant response rating, Oat, Wild [5, 14]: 0
Plant response rating, Oat, Wild [5, 15]: 0
Plant response rating, Oat, Wild [5, 16]: 75
Plant response rating, Oat, Wild [5, 18]: 75
